PMC2714694, “Conservation of the glucan phosphatase laforin is linked to rates of molecular evolution and the glucan metabolism of the organism” (BMC Evolutionary Biology, 2009)

Molecular target: T1, Nv-laforin (Nematostella vectensis, UniProt A7SVW9)
T1 construct: gene NEMVEDRAFT_v1g194103; complete open reading frame from Nematostella DNA; GST-Nv-laforin-HIS6 from E. coli BL21 (DE3) CodonPlus RIL; CBM20 plus DSP
T1 sequence (A7SVW9 1-324): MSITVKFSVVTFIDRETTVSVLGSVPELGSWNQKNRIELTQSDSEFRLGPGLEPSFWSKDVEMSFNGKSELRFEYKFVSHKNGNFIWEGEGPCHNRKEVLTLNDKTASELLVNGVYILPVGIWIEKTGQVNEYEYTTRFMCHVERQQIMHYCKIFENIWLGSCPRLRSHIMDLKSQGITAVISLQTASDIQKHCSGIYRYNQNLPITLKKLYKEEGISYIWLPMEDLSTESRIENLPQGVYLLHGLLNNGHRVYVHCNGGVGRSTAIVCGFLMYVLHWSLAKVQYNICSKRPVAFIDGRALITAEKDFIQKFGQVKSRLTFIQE
Assay: p-NPP hydrolysis, absorbance […] nm
Format: biochemical
Conditions: 50 mM pNPP, pH 5-8 tested (optimum pH 7.5), 37 °C, 2 mM dithiothreitol, 0.1 M sodium acetate, 0.05 M bis-Tris, 0.05 M Tris-HCl

O=[N+]([O-])c1ccc(OP(=O)(O)O)cc1 [para-nitrophenylphosphate]
p-NPP hydrolysis, absorbance 410 nm: Both Bf- and Nv-laforin also utilized p-NPP as an artificial substrate
